Experimental data published in patent publication US20220008425A1, “Pharmaceutical Composition for Treating B-Cell Lymphoma” (FUNDAN UNIVERSITY SHANGHAI CANER CENTER, priority 2018, published 2022).
Entries after “also recorded” stand apart in the source; their conditions may differ.

Key:
[1] = system: AKT phosphorylation, SOX2, FGFR1/2 and CSC-associated molecules in NU-DUL-1-RCHO cells; assay: Immunoblot analysis; format: cell-based, human
NU-DUL-1-RCHO cells [2] = assay: Aldefluor analysis (ALDH1+ cells); format: cell-based, human
Protocol: (§1) ALDH1 is a selectable marker for a variety of normal and cancer stem cells, including hematopoietic stem cells. Therefore, we assessed the number of cancer stem cells in hematopoietic malignancies by detecting ALDH1 positive cells. As previously described, we used an ALDEFLUOR™ kit (StemCell Technologies, Vancouver, BC, CA) to detect populations with high ALDH1 activity. Briefly, 1×10^6 cells were suspended in 1 mL of assay buffer containing 1 μM of BAAA, a substrate of […]. Suspended cells were then equally divided into two samples, one as a negative control and the other as a test sample. To form the negative control, […] of DEAB, a specific ALDH inhibitor, was added to one equally-divided sample. Cells were then incubated at 37° C. for 30 minutes prior to flow cytometry analysis.

LY8-RCHO cells [3] = assay: Aldefluor analysis (ALDH1+ cells); format: cell-based, human
Protocol: as §1

[4] = system: AKT phosphorylation, SOX2, CDK6 and CSC-associated molecules in LY8-RCHO cells; assay: Immunoblot analysis; format: cell-based, human
[5] = system: CD20 and mCRPs (CD46, CD55, CD59) in RCHO-resistant NU-DUL-1 cells; assay: FACS analysis of membrane expression of CD46, CD55, CD59 and CD20; format: cell-based, human
Protocol: (§2) After being washed with PBS, cells were incubated with fluorescein-conjugated antibody for 30 minutes, followed by washing and resuspension of cells in PBS. Flow cytometry analysis was performed on a cytomics FC500 MPL instrument (Beckman Coulter, Inc., Brea, Calif.) and FlowJo software (Ashland, Inc., OR) was used for analysis. Cells were then sorted according to their relative fluorescence intensity by using a MoFlo XDP sorter (Beckman Coulter Inc., Brea, Calif.).

[6] = system: CD20 and mCRPs (CD46, CD55, CD59) in RCHO-resistant LY8 cells; assay: as above; format: cell-based, human
Protocol: as §2

NU-DUL-1-RCHO cells [7] = conditions: 48 hours
Protocol: (§3) Further, we constructed LY8 and NU-DUL-1 cells resistant to chemotherapeutic drugs. Briefly, LY8-ORI and NU-DUL-1-ORI cells were treated with doxorubicin (Selleck Chemicals, Houston, Tex.) and vincristine (Selleck Chemicals, Houston, Tex.) at a clinical ratio of 50:1.4 by increasing the concentration. […] These cells were then treated with 2 μg/mL of 4-hydroperoxycyclophosphamide (4-HC) (Santa Cruz Biotechnology, Inc., Santa Cruz, Calif.) every 21 days for 3 cycles. The obtained CHO-resistant cells are referred to as LY8-CHO and NU-DUL-1-CHO, respectively. CHO-resistant cells were treated with doxorubicin, vincristine, and 4-HC every 22 days to maintain drug tolerance to CHO. […] To maintain RCHO resistance, LY8-RCHO cells and NU-DUL-1-RCHO cells were treated with 32 μg/mL of rituximab containing 20% (v/v) of NHS every 22 days, followed by treatment with doxorubicin, vincristine, and 4-HC. After 48 hours of treatment with doxorubicin, vincristine and 4-HC, drug resistance to CHO and RCHO was determined by a series of CCK-8 assays.
(§4) Cells were seeded in a 96-well plate at a density of 1×10^4/100 μL/well. Cells were pretreated with IPI-145, abemaciclib, AZD4547, PF-573228, R788, or saracatinib at increasing concentrations with or without CHO for 48 hours prior to performing CytoTox-Glo™ cytotoxicity assay. We performed cytotoxicity assay by using a CytoTox-Glo™ cytotoxicity assay kit (Promega Inc., Madison, Wis.) according to their instructions. Briefly, 50 μL of CytoTox-Glo™ cytotoxicity assay reagent was added to all wells, mixed by orbital shaking, and then incubated for 15 minutes at room temperature. Luminescence of experimental dead cells was detected with a Synergy HT microplate reader (BioTek, Biotek Winooski, Minn.), wherein 50 μL of lysate was added to all wells, mixed and incubated for 15 minutes at room temperature prior to detection of total luminescence. Cytotoxicity was calculated according to the following formula: Cytotoxicity (%)=Experimental dead cell luminescence/Total luminescence×100%.

LY8-RCHO cells [8] = conditions: 48 hours
Protocol: as §3, §4

[9] = inhibitor alone at increasing concentrations
[10] = inhibitor at increasing concentrations with CHO

## C[C@H](Nc1ncnc2[nH]cnc12)c1cc2cccc(Cl)c2c(=O)n1-c1ccccc1 [duvelisib]
[1]
  AKT phosphorylation and expression of SOX2 and FGFR1/2: reduces expression of SOX2 and FGFR1/2 by inhibiting AKT phosphorylation; also recorded: prevented phosphorylation of AKT and induced degradation of SOX2
  levels of CSC-associated molecules (OCT4, NANOG, KLF4, c-MYC, CD34, CD133): significantly reduced levels of CSC-associated molecules in the RCHO-resistant cells
NU-DUL-1-RCHO cells [2]
  proportion of ALDH1+ cells (CSCs): significantly reduced ALDH1+ subpopulations in LY8-RCHO and NU-DUL-1-RCHO cells
LY8-RCHO cells [3]
  proportion of ALDH1+ cells (CSCs): significantly reduced ALDH1+ subpopulations in LY8-RCHO and NU-DUL-1-RCHO cells
[4]
  AKT phosphorylation and expression of SOX2 and CDK6: reduces the expression of SOX2 and CDK6 by inhibiting AKT phosphorylation; also recorded: prevented phosphorylation of AKT and induced degradation of SOX2, thereby reducing expression of CDK6
  levels of CSC-associated molecules (OCT4, NANOG, KLF4, c-MYC, CD34, CD133): significantly reduced levels of CSC-associated molecules in the RCHO-resistant cells
[5]
  membrane expression of CD20: significantly reduced
  membrane expression of the other three mCRPs (CD46, CD55, CD59): the other three mCRPs did not
[6]
  membrane expression of CD20: significantly reduced
  membrane expression of the other three mCRPs (CD46, CD55, CD59): the other three mCRPs did not
NU-DUL-1-RCHO cells [7]; [9]
  cytotoxicity (induction of cell death), inhibitor used alone: only slightly somewhat cytotoxic; also recorded: negligible effect on direct induction of cell death
NU-DUL-1-RCHO cells [7]; [10]
  reversal of resistance to CHO (cytotoxicity of CHO), inhibitor co-treated with CHO: significantly enhanced the cytotoxicity of CHO in the two RCHO-resistant cell lines in a dose-dependent manner; also recorded: significantly reversed resistance of RCHO-resistant cells to CHO
LY8-RCHO cells [8]; [9]
  cytotoxicity (induction of cell death), inhibitor used alone: only slightly somewhat cytotoxic; also recorded: negligible effect on direct induction of cell death
LY8-RCHO cells [8]; [10]
  reversal of resistance to CHO (cytotoxicity of CHO), inhibitor co-treated with CHO: significantly enhanced the cytotoxicity of CHO in the two RCHO-resistant cell lines in a dose-dependent manner; also recorded: significantly reversed resistance of RCHO-resistant cells to CHO
